# Data: article PMC8773213, “In Vitro Anticancer Activity and Mechanism of Action of an Aziridinyl Galactopyranoside” (Biomedicines, 2021)
# Like-named read-outs stand apart in the source and are kept apart here.
# Legend:
# [1] = system: AA8 cells (NER proficient); experiment: MTT cell viability assay, AA8 cells; format: cell-based, Chinese hamster; details: then 48 h in drug-free medium, read-out: IC50 (mean ± SEM), AA8 cells
# Method: (§1) Exponentially growing cells were seeded in 96-well plates and allowed to attach and grow for 24 h. The cells were then treated with increasing concentrations of the tested drugs. At the end of the treatment period, cell viability was measured with the MTT assay or the resazurin assay, two widely used techniques.
# (§2) In the case of the MTT assay, this technique detects viable cells using the ability of these cells to reduce the yellow tetrazolium MTT to an insoluble colored formazan product. Subsequently, this product was solubilized and analyzed by spectrophotometry. Dead cells cannot reduce the MTT into the colored formazan product. Briefly, 24 h after plating, cells were treated with the tested compounds for 48 h; except in experiments with DNA repair-proficient and -deficient cell lines, in which cells were only exposed for 24 h to drugs and allowed to grow for an additional 48 h in drug-free medium to allow them to repair possible DNA damage induced by the tested drugs. […] Finally, plates were incubated overnight at 37 °C and optical densities were measured at 540 nm using an absorbance spectrophotometer microplate reader.
# (§3) In both assays, cell viability was expressed as percentage compared to untreated cells. Results were expressed as the means ± standard error of the mean (SEM). […]
# [2] = system: UV4 cells (mutated in ERCC1, NER deficient); experiment: MTT cell viability assay, UV4 cells; format: cell-based, Chinese hamster
# Method: as §1, §2, §3
# [3] = system: HL-60 (Human acute promyelocytic leukemia cells); experiment: Resazurin cell viability assay, HL-60; format: cell-based; details: 72 h, read-out: IC50 (Mean ± SEM, µM), HL-60
# Method: as §1
# (§4) The resazurin assay is a redox-based colorimetric/fluorometric technique based on the ability of viable cells to reduce the blue compound resazurin into the pink, fluorescent and soluble product resorufin. The amount of resorufin produced is generally proportional to the number of living cells. In this assay, 24 h after seeding, cells were exposed to the tested drugs for 72 h. Then 100 μL resazurin in medium was added to each well (final concentration of 10 μg/mL) and, one hour later the fluorescence intensity was measured at 530/590 nm (excitation/emission) using a fluorescence microplate reader.
# (§5) In both assays, cell viability was expressed as percentage compared to untreated cells. Results were expressed as the means ± standard error of the mean (SEM). All data are from at least three independent experiments.
# [4] = system: NB4 (Human acute promyelocytic leukemia cells); experiment: Resazurin cell viability assay, NB4; format: cell-based; details: 72 h, read-out: IC50 (Mean ± SEM, µM), NB4
# Method: as §1, §4, §5
# [5] = system: BJ-RASV12 (HRASV12-transformed BJ-SV40T cells); experiment: Resazurin cell viability assay, BJ-RASV12; format: cell-based, human; details: 72 h
# Method: as §1, §4, §5
# [6] = system: cancer cell lines versus MRC-5 and VH10 normal cell lines; experiment: Resazurin assay, panel of cancer cells versus normal cells; format: cell-based, human
# Method: as §1, §4, §5
# Next, we evaluated the cytotoxic activity of AzGalp in cancer cell lines derived from solid tumors (HeLa, PC3, U2OS, HepG2 and SW480) and from hematological malignancies (NB4 and HL-60). To study the selectivity against cancer cells, MRC-5 and VH10 cells were used as normal cell lines; 5-FU was used as a positive control. All cells were treated with AzGalp or 5-FU for 72 h and cell viability was evaluated with the resazurin assay. This assay was used to determine cell viability instead of the MTT assay because the HL60 and NB4 cell lines grow in suspension. […] Leukemia cell lines were approximately 15 times more sensitive than normal cells to the cytotoxicity of our aziridine.
# A549 lung cancer cells = experiment: MTT cytotoxicity of combinations, A549; format: cell-based; details: 48 h
# Method: as §1, §2, §3
# [7] = system: HeLa (Human cervical carcinoma cells); experiment: Resazurin cell viability assay, HeLa; format: cell-based; details: 72 h, read-out: IC50 (Mean ± SEM, µM), HeLa
# Method: as §1, §4, §5
# [8] = system: U2OS (Human osteosarcoma cells); experiment: Resazurin cell viability assay, U2OS; format: cell-based; details: 72 h, read-out: IC50 (Mean ± SEM, µM), U2OS
# Method: as §1, §4, §5
# A549 cells = experiment: Glycolysis inhibition (glucose consumed, lactate produced); format: cell-based, human; details: A549, 8 h
# Method: Inhibition of glycolysis was determined by measuring glucose consumed (initial product of glycolysis) and lactate produced (final product of glycolysis) in untreated and treated cells. Cells were seeded in 6-well plates at a density of 10^6 cells/well and were allowed to attach for a few hours before treatment with the tested compounds for 8 h. After treatment, medium was recollected and glucose and lactate concentrations were determined using the Accutrend® Plus analyzer together with Accutrend glucose strips and BM-Lactate strips (Roche Diagnostics, Barcelona, Spain). After calibrating the instrument with glucose and lactate calibration strips, test strips were used to determine glucose and lactate levels through colorimetric oxidase mediator reactions according to the manufacturer’s instructions. The results are expressed as percentage of glucose consumption and percentage of lactate production in relation to untreated cells. Data were averaged from two independent experiments and shown as mean ± SEM.
# [9] = system: MRC-5 (Human lung non-malignant cells); experiment: Resazurin cell viability assay, MRC-5; format: cell-based; details: MRC5, 72 h, read-out: IC50 (Mean ± SEM, µM), MRC-5
# Method: as §1, §4, §5
# [10] = system: BJ-SV40T (SV40T-transformed BJ-hTERT cells); experiment: Resazurin cell viability assay, BJ-SV40T; format: cell-based; details: Homo sapiens, 72 h, read-out: IC50 (Mean ± SEM, µM), BJ-SV40T
# Method: as §1, §4, §5
# [11] = system: PC3 (Human prostate cancer cells); experiment: Resazurin cell viability assay, PC3; format: cell-based; details: 72 h, read-out: IC50 (Mean ± SEM, µM), PC3
# Method: as §1, §4, §5
# [12] = system: BJ-hTERT (hTERT-immortalized skin non-malignant BJ cells); experiment: Resazurin cell viability assay, BJ-hTERT; format: cell-based; details: Homo sapiens, 72 h, read-out: IC50 (Mean ± SEM, µM), BJ-hTERT
# Method: as §1, §4, §5
# UV4 and AA8 cells = experiment: Clonogenic survival assay; format: cell-based, Chinese hamster; details: 10 µM, 24 h, then colonies in drug-free medium
# Method: Cell survival after treatment was determined by clonogenic assay. AA8 and UV4 cells were seeded in 6 cm Petri dishes 4 h prior to treatment for 24 h. After that, drugs were removed and cells were allowed to form colonies for eight days. The colonies were then stained with 0.4% methylene blue in methanol for 15 min. Surviving colonies made up of more than 50 cells per colony were counted. Results were represented as percentage of survival referred to untreated cells.
structure (smiles),measurement,setting,value
"Cc1ccc(S(=O)(=O)N2CC2(C)CO[C@@H]2O[C@@H]3CO[C@H](c4ccccc4)O[C@@H]3[C@H](OCc3ccccc3)[C@H]2OCc2ccccc2)cc1 (stereo partly drawn) [AzGalp, 2-methyl-2,3-[N-(4-methylbenzenesulfonyl)imino]propyl 2,3-di-O-benzyl-4,6-O-(S)-benzylidene-β-D-galactopyranoside]",IC50,[1]; 24 h exposure,319 ± 77.2 µM
same,IC50,"[1]; Cricetulus griseus, CHO-AA8, 24 h exposure",397 ± 142 µM
same,IC50,"[2]; Cricetulus griseus, UV4, 24 h exposure, then 48 h in drug-free medium, read-out: IC50 (means ± SEM), UV4 cells",58.6 ± 9.3 µM
same,Sensitivity of NER-deficient cells relative to NER-proficient cells,[2]; UV4 and UV5 versus AA8,approximately six times more sensitive
same,IC50,[3],11.1 ± 0.9 µM
same,IC50,[4],21.4 ± 9.9 µM
same,Sensitivity of BJ-RASV12 malignant cells relative to BJ-hTERT non-malignant cells,[5]; resazurin,three times more sensitive
same,IC50,"[5]; Homo sapiens, resazurin assay, read-out: IC50 (Mean ± SEM, µM), BJ-RASV12",76.3 ± 17.8 µM
same,Viability of leukemia cells,"[6]; HL60 and NB4, concentrations between 10 and 100 µM, 72 h",5%
same,Viability of normal cells,"[6]; MRC-5 and VH10, concentrations between 10 and 100 µM, 72 h",did not alter the viability of normal cells
same,Sensitivity of leukemia cell lines relative to normal cells,"[6]; NB4 and HL-60 versus MRC-5 and VH10, 72 h",approximately 15 times
same,Cytotoxicity against HepG2 and U2OS relative to normal cell lines,"[6]; versus MRC-5 and VH10, 72 h",approximately 2.5 times
same,"Cytotoxicity of combination with 5-FU, cancer cells",A549 lung cancer cells; 100 μM AzGalp + 10 μM 5-FU,killed more cancer cells than when these drugs were administered individually
same,"Cytotoxicity of combination with oxaliplatin, cancer cells",A549 lung cancer cells; 100 μM AzGalp + 10 μM oxaliplatin,killed more cancer cells than when these drugs were administered individually
same,IC50,[7],191 ± 35.8 µM
same,IC50,[8],120 ± 8 µM
same,Glycolytic activity (glucose consumption and lactate production),A549 cells,did not affect the glycolytic activity
same,IC50,[9],341 ± 85 µM
same,IC50,[10],143 ± 8.1 µM
same,IC50,[11],401 ± 14.8 µM
same,IC50,[12],209 ± 24.2 µM
same,"Cell survival, UV4 versus AA8 (clonogenic assay)",UV4 and AA8 cells,UV4 cells were more sensitive
